Measured values published in patent US11925679B2, “H3.3 CTL peptides and uses thereof” (The Regents of the University of California, priority 2015, dated 2024).

Tests used:
[1] = system: HLA-A*0201+ donor-derived PBMCs; experiment: In vitro stimulation of donor PBMCs with peptide, tetramer staining of CD8+ T-cells
Experimental: Peripheral blood mononuclear cells from an HLA-A ? + donor were stimulated in vitro with the H3.3.K27M peptide and evaluated for their reactivity against: (1A) HLA-A ? /H3.3.K27M-specific tetramer and anti-CD8 mAb, and (1B) T2 cells pulsed with the mutant or non-mutated H3.3 peptide by IFN-γ ELISA.
Induction and isolation of H3.3K27M-specific CTL clones. To generate dendritic cells, the plastic adherent cells from PBMCs were cultured in AIM-V medium (Invitrogen) supplemented with 1,000 units/mL recombinant human granulocyte macrophage colony-stimulating factor and 500 units/mL recombinant human IL-4 (rhIL-4; Cell Sciences) at 37° C. in a humidified CO2 (5%) incubator. Six days later, the immature dendritic cells were stimulated with recombinant human tumor necrosis factor-α, IL-6, and IL-1 (10 ng/mL each). Mature dendritic cells were then harvested on day 8, resuspended in AIM-V medium at 1×10^6 cells per mL with peptide (10 μg/mL), and incubated for 2 hours at 37° C. Populations of autologous CD8^+ T-cells were enriched from PBMCs using magnetic microbeads (Miltenyi Biotech). CD8^+ T-cells (2×10^6 per well) were co-cultured with 2×10^5 per well peptide-pulsed dendritic cells in 2 mL/well of AIM-V medium supplemented with 5% human AB serum, 10 units/mL rhIL-2 (R&D Systems, Minneapolis, Minn.), and 10 units/mL rhIL-7 (Cell Sciences) in each well of 24-well tissue culture plates. On day 15, lymphocytes were re-stimulated with autologous dendritic cells pulsed with peptide in AIM-V medium supplemented with 5% human AB serum, rhIL-2, and rhIL-7 (10 units/mL each).
HLA-A*0201-peptide tetramer staining. […] (SEQ ID NO:2) tetramer (H3.3K27M-tetramer) was produced by the National Institute of Allergy and Infectious Disease tetramer facility within the Emory University Vaccine Center (Atlanta, Ga.) using the peptide synthesized by A&A labs (San Diego; CA). […] Cells were then washed with FACS Buffer (PBS containing 1% FBS). For some experiments, T-cells were stained with tetramer, followed by anti-human CD8 APC (Biolegend, 344722) and anti-human CD69 FITC (eBioscience, 11-0699-42).

[2] = system: purified HLA-A2 class I molecules; experiment: Competitive binding inhibition assay with purified HLA-A2 and radiolabeled probe peptide; set-up: species or system human; details: cell-free binding assay, FIG. 8A

RMSAPSTGGV [H3.3.K27M (26-35)]
CD8+tetramer+ population ([1]; FIG. 2A): 64.1 % of total lymphocyte-gated cells | tetramer high subpopulation ([1]; FIG. 2A): 2.4 % of total lymphocyte-gated cells | CD8+ cells bound to the HLA-A*0201-H3.3.K27M (26-35) tetramer ([1]; several weekly stimulation cycles in vitro): over 60%

XMSAPSTGGV [Cit H3.3]
affinity to HLA-A*0201 relative to H3.3.K27M (26-35) [2]: partially retains its affinity
